Assay results taken from patent US20260250257A1, “ANTIBACTERIAL AND SYNERGISTIC ACTIVE COMPOUND AND USE THEREOF” (EAST CHINA UNIVERSITY OF SCIENCE AND TECHNOLOGY, priority 2023, published 2026).
Converted amounts (≈) assume the structure as drawn.

Tests used:
Format in all cases: cell-based
[1] = test system: ATCC13883 strain (Klebsiella pneumoniae); test: Checkerboard antibacterial synergistic activity test with polymyxin E (FIC); parameters: key: FIC≤0.5 synergy; 0.5–1 additive; 1–2 indifferent; ≥2 antagonism; settings: combined with polymyxin E
In short: (§1)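 First, two-fold series of polymyxin E (16–0.015 μg/ml) and compound (256–4 μg/ml) were made in MH broth. Next, combinations went into a 96-well grid, bacterial liquid was added, and plates sat at 37° C. for 16 h. Finally, FIC was computed and classed (≤0.5 synergistic).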

[2] = test system: ATCC9027 strain (Pseudomonas aeruginosa); test: as above; parameters: key: FIC≤0.5 synergy; 0.5–1 additive; 1–2 indifferent; ≥2 antagonism; settings: combined with polymyxin E
In short: as §1

[3] = test system: ATCC25922 strain (Escherichia coli); test: as above; parameters: key: FIC≤0.5 synergy; 0.5–1 additive; 1–2 indifferent; ≥2 antagonism; settings: combined with polymyxin E
In short: as §1

[4] = test system: ATCC19606 strain (Acinetobacter baumannii); test: as above; parameters: key: FIC≤0.5 synergy; 0.5–1 additive; 1–2 indifferent; ≥2 antagonism; settings: combined with polymyxin E
In short: as §1

[5] = test system: ATCC13883 strain (Klebsiella pneumoniae); test: Broth microdilution, antibacterial activity of the compound used alone; settings: for MIC: read-out: Antibacterial activity of the compound of Formula I, ATCC13883
Source text: (§2) The broth microdilution method was used to test the antibacterial effects of the compounds of the present invention against various Gram-negative bacterial strains when used alone.

[6] = test system: ATCC9027 strain (Pseudomonas aeruginosa); test: as above; settings: for MIC: read-out: Antibacterial activity of the compound of Formula I, ATCC9027
Source text: as §2

[7] = test system: ATCC25922 strain (Escherichia coli); test: as above; settings: for MIC: read-out: Antibacterial activity of the compound of Formula I, ATCC25922
Source text: as §2

[8] = test system: ATCC19606 strain (Acinetobacter baumannii); test: as above; settings: for MIC: read-out: Antibacterial activity of the compound of Formula I, ATCC19606
Source text: as §2

SMILES	Synergistic activity (FIC value) ATCC13883 [1]	Synergistic activity (FIC value) ATCC9027 [2]	Synergistic activity (FIC value) ATCC25922 [3]	Synergistic activity (FIC value) ATCC19606 [4]	Antibacterial activity of the compound of Formula I, ATCC13883 [5]	Antibacterial activity of the compound of Formula I, ATCC9027 [6]	Antibacterial activity of the compound of Formula I, ATCC25922 [7]	Antibacterial activity of the compound of Formula I, ATCC19606 [8]	MIC [5]	MIC [6]	MIC [7]	MIC [8]
Oc1c(Cl)cc(-c2csc(N=C3NCCCN3)n2)cc1Cl [Compound I-188]	1.25	0.52	1.25	0.25	256 µg/mL	256 µg/mL	256 µg/mL	256 µg/mL				
NC(N)=Nc1nc(-c2cccc(NS(=O)(=O)c3ccccc3)c2)cs1 [Compound I-111]	0.25	1.25	0.63	0.5					256 µg/mL (≈ 685 µM)	256 µg/mL (≈ 685 µM)	256 µg/mL (≈ 685 µM)	256 µg/mL (≈ 685 µM)
Cc1sc(N=C2NCCCN2)nc1-c1cc(C(C)C)cc(C(C)C)c1 [Compound I-167]	0.25	0.63	0.5	0.3	256 µg/mL	256 µg/mL	256 µg/mL	256 µg/mL				
CC(C)c1ccccc1-c1nc(N=C2NCCCN2)sc1Br [Compound I-164]	0.33	0.62	0.39	0.15	256 µg/mL	256 µg/mL	256 µg/mL	256 µg/mL				
NC(N)=Nc1nc(-c2cc(C(F)(F)F)cc(C(F)(F)F)c2)cs1 [Compound I-44]	0.25	0.52	0.31	0.14					256 µg/mL (≈ 723 µM)	256 µg/mL (≈ 723 µM)	256 µg/mL (≈ 723 µM)	256 µg/mL (≈ 723 µM)
CC(C)(C)c1ccccc1-c1coc(N=C(N)N)n1 [Compound I-10]	1.25	1.25	0.5	1.25	256 µg/mL	256 µg/mL	256 µg/mL	256 µg/mL				
COc1ccc(Oc2cccc(-c3csc(N=C(N)N)n3)c2)c(OC)c1 [Compound I-98]	0.09	0.06	0.14	0.31	256 µg/mL	256 µg/mL	256 µg/mL	256 µg/mL				
COc1cccc(-c2csc(N=C(N)N)n2)c1 [Compound I-5]	1.25	1.25	1.25	1.25	256 µg/mL	256 µg/mL	256 µg/mL	256 µg/mL				
COc1ccccc1-c1csc(N=C(N)N)n1 [Compound I-4]	1.25	1.25	0.5	1.25	256 µg/mL	256 µg/mL	256 µg/mL	256 µg/mL				
CC(C)c1ccccc1-c1coc(N=C(N)N)n1 [Compound I-15]	1.25	1.25	0.5	1.25	256 µg/mL	256 µg/mL	256 µg/mL	256 µg/mL				
Cc1c(-c2coc(N=C3NCCCN3)n2)ccc(Cl)c1C#N [Compound I-169]	0.33	0.62	0.39	0.15	256 µg/mL	256 µg/mL	256 µg/mL	256 µg/mL				
NC(N)=Nc1nc(-c2c(S(N)(=O)=O)csc2Cl)cs1 [Compound I-118]	0.19	1.25	1.25	1.25					256 µg/mL (≈ 758 µM)	256 µg/mL (≈ 758 µM)	256 µg/mL (≈ 758 µM)	256 µg/mL (≈ 758 µM)
Ic1ccccc1-c1c[nH]c(N=C2NCCCN2)n1 [Compound I-179]	1.25	0.51	1.25	1.25	128 µg/mL	64 µg/mL	128 µg/mL	256 µg/mL				
Clc1ccc(Oc2ccccc2-c2c[nH]c(N=C3NCCCN3)n2)c(Cl)c1 [Compound I-146]	0.09	0.06	0.14	0.31	256 µg/mL	256 µg/mL	256 µg/mL	256 µg/mL				
COc1ccc(Oc2ccccc2-c2csc(N=C3NCCCN3)n2)c(OC)c1 [Compound I-149]	0.16	0.28	0.18	0.03	256 µg/mL	256 µg/mL	256 µg/mL	256 µg/mL				
